Measured values as given in patent publication EP1407768A2, “The potassium channel opener retigabine for the treatment of diseases” (GLAXO GROUP LIMITED, priority 1999, dated 2001).
Where two headings read alike, the source gives them in different places.

Columns and labels:
[1] = target: T1, KCNQ2 (Homo sapiens, UniProt O43526); assay: Voltage-clamp of Xenopus oocytes expressing KCNQ2 alone (pSP64t vector); format: cell-based; conditions: 10µM retigabine
T1 construct: expressed in transfected cells; host or cells: Xenopus oocytes, expression vector pSP64t

[2] = test system: pentylene tetrazol-induced seizures in rats; conditions: protection against pentylene tetrazol-induced seizures in rats; cited from earlier work
[3] = test system: carageenan model of inflammatory pain; assay: Carageenan model of inflammatory pain; format: in vivo
Excerpt: Br. J. Pharmacol. 120: P78).

[4] = target: T2, KCNQ2/3 potassium channel (Homo sapiens, UniProt O43525+O43526); assay: Current clamp of oocytes expressing KCNQ2 plus KCNQ3: hyperpolarisation of the cell; format: cell-based
T2 construct: expressed in transfected cells; host or cells: Xenopus laevis oocytes injected with capped cRNA (KCNQ2 in pCIN3, KCNQ3 in pCIH6)

[5] = target: T2, KCNQ2/3 potassium channel; assay: Two-microelectrode voltage-clamp of Xenopus oocytes expressing equimolar KCNQ2 plus KCNQ3; format: cell-based; conditions: for fold induction at 10 µM: read-out: increase of outward KCNQ current amplitude, 10µM retigabine; for increase of the rate of current activation: data fitted to a single exponential
Excerpt: Human KCNQ2 and KCNQ3 potassium channels were cloned from a human brain CDNA library using standard methodology. All clones were sequenced and were identical to those reported in the literature (Charlier, C., Singh, N.A., Ryan, S.G., Lewis, T.B., Reus, B. E., Leach, R.J. Leppert, M. (1998). A pore mutation in a novel KQT-like potassium channel gene in an idiopathic epilepsy family. Nature Genetics 18: 53-55 and Singh, N.A., Charlier, C., Stauffer, D., DuPont, B.R., Leach, R.J., Melis, R., Ronen, G.M., Bjerre, I., Quattlebaum, T., Murphy, J.V., McHarg, M.L., Gagnon, D., Rosales, T.O., Peiffer, A., Anderson, E & Leppert, M. (1998) Nature Genetics, 18: 25-29).
Adult female Xenopus laevis (Blades Biologicals) were anaesthetised using 0.2% tricaine (3-aminobenzoic acid ethyl ester), killed and the ovaries rapidly removed. Oocytes were de-folliculated by collagenase digestion (Sigma type I, 1.5 mg ml^-1) in divalent cation-free OR2 solution (82.5mM NaCl, 2.5mM KCI, 1.2mM NaH2PO4, 5mM HEPES; pH 7.5 at 25°C). Single stage V and VI oocytes were transferred to ND96 solution (96mM NaCl, 2mM KCI, 1mM MgCl2, 1.8mM CaCl2, 5mM HEPES; pH 7.5 at 25°C) which contained 50µg ml^- ^1 gentamycin and stored at 18°C.
KCNQ2 (in pCIN3 vector) and KCNQ3 (in pCIH6) were linearised and transcribed to RNA using T7 or T3 polymerase (Promega Wizard kit). m'G(5')pp(5')GTP capped cRNA was injected into oocytes (20-50nl of 1µgµl^-1 RNA per oocyte) and whole-cell currents were recorded using two-microelectrode voltage-clamp (Geneclamp amplifier, Axon instruments Inc.) 3 to 5 days post-RNA injection. […] In all experiments oocytes were voltage-clamped at a holding potential of -90mV in ND96 solution (superfused at 2ml per min.) and test compounds were applied by addition to this extracellular solution. Current-voltage curves were constructed by applying 800ms voltage-clamp pulses from the holding potential of -90mV to test potentials between -85mV and +30mV..
Whole-cell currents were recorded from oocytes expressing KCNQ2 alone, KCNQ3 alone and an equimolar combination of KCNQ2 plus KCNQ3. Mean current amplitude (at +20mV) was 152 +/- 21 nA for KCNQ2 alone, 157 +/-19nA for KCNQ3 alone and 1467 +/- 420nA for KCNQ2 & KCNQ3. Further characterisation of the KCNQ2/KCNQ3 heteromeric channel (current-voltage curve, conductance plot, linopirdine block) gave similar results to those reported in the literature (Yang, W.-P., Levesque, P.C., Little, W.A., Conder, M.L., Ramakrishnan, P., Neubauer, M.G. & Blanar, M.A, (1998) Functional expression of two KvLQT1-related potassium channels responsible for an inherited idiopathic epilepsy. J. Biol. Chem., 31: 19419-19423 and Wang, H.-S., Pan, Z., Shi, W., Brown, B.S.,. Wymore, R.S., Cohen, I.S., Dixon, J.E. & McKinnon, D (1998) KCNQ2 and KCNQ3 potassium channel subunits: molecular correlates of the M-channel. Science 282: 1890-1893).
The effects of retigabine were studied in oocytes expressing equimolar KCNQ2 plus KCNQ3. Application of 10µM retigabine led to a pronounced 20mV hyperpolarising shift in the threshold for KCNQ current activation (n=5), such that an augmentation of KCNQ current was seen over the normal physiological range of membrane potentials. For example, at a test potential of -60mV, outward KCNQ current amplitude increased 8-fold in the presence of retigabine (6.2-fold at -70mV; 7.1-fold at -50mV; n=5). These changes in KCNQ current amplitude were associated with an increase in the rate of current activation: Retigabine increased the rate of current activation 15-fold at a test potential of -40mV, and 3-fold at a test potential of -30mV (data fitted to a single exponential in each case).
Application of retigabine led to a marked alteration in the properties of the KCNQ2/3 tail currents. In these experiments the voltage clamp protocols comprised a 1s prepulse from -100mV to +40mV to fully activate the KCNQ2/3 channel, followed by a 6s pulse to test potentials between -30mV and -110mV.

T2 sequence (O43526 1-844 isoform O43526-3): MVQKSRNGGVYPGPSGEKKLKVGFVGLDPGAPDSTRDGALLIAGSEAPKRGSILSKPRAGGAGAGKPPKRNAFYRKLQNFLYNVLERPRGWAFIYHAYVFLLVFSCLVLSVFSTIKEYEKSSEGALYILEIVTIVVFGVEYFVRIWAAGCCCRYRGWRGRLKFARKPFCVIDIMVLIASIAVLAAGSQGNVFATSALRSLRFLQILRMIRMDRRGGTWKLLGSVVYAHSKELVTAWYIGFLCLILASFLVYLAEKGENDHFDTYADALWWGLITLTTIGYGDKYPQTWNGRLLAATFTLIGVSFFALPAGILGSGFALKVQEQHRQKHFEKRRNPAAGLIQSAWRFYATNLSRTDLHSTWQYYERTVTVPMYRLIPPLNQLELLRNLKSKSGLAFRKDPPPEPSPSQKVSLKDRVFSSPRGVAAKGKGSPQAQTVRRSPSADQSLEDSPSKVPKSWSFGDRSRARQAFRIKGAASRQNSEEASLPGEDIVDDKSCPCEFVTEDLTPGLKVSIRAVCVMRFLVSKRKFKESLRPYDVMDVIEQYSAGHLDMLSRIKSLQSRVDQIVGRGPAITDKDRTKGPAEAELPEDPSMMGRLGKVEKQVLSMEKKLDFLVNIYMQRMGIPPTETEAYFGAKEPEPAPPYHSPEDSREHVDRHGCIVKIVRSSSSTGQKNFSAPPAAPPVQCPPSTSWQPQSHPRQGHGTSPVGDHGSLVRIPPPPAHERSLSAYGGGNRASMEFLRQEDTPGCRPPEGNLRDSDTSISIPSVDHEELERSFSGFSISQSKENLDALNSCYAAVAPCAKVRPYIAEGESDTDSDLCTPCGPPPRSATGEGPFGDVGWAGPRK
T2 sequence (O43525 whole entry): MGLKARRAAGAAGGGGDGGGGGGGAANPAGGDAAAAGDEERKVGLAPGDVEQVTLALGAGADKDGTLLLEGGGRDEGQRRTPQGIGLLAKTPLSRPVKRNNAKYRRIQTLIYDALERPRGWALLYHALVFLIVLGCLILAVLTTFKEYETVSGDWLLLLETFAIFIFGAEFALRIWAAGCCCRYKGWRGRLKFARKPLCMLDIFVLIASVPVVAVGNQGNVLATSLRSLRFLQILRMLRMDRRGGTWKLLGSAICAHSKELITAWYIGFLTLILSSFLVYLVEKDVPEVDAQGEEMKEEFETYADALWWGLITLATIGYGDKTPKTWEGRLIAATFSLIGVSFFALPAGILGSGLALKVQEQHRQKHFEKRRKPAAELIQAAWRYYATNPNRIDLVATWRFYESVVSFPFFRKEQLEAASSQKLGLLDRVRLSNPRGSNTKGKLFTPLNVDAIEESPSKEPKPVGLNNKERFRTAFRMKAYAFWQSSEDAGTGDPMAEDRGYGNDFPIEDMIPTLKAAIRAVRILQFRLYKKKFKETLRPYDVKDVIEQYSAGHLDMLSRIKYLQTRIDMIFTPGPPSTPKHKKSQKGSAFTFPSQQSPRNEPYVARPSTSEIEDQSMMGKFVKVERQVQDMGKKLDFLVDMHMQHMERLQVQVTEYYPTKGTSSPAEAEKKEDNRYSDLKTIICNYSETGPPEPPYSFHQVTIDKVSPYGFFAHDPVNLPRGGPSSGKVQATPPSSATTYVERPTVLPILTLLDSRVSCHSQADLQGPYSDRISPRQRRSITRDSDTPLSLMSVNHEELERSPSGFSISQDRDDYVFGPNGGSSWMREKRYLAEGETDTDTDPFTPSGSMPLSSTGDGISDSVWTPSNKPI
T1 sequence (O43526 1-844 isoform O43526-3): as the sequence (O43526 1-844 isoform O43526-3) above

Structure (SMILES): CCOC(=O)Nc1ccc(NCc2ccc(F)cc2)cc1N [retigabine, 2-amino-4-(4-fluorobenzylamino)-1-ethoxycarbonylaminobenzene]
- mean delay (rate of current activation) ([1]; at -40mV, control 132+/-16ms): 75 ± 7 ms
- KCNQ current amplitude ([1]; at -50mV, n=7, control = 145+/-34nA): 501+/-116 nA
- hyperpolarising shift in the threshold for KCNQ2 current activation ([1]; oocytes expressing KCNQ2 alone): 20 mV
- ED50 [2]: 6.2 mg/kg
- ED50 [3]: 4.5 mg/kg
- EC50 [4]: 5.2 µM
- Hill slope ([4]; hyperpolarisation of oocytes held under current clamp): 1.1 ± 0.1
- hyperpolarising shift in the threshold for KCNQ current activation ([5]; 10µM retigabine, oocytes expressing equimolar KCNQ2 plus KCNQ3, n=5): 20 mV
- fold induction at 10 µM ([5]; test potential -50mV, n=5): 7.1
- fold induction at 10 µM ([5]; test potential -60mV, n=5): 8
- fold induction at 10 µM ([5]; test potential -70mV, n=5): 6.2
- increase of the rate of current activation ([5]; test potential -30mV): 3 fold
- increase of the rate of current activation ([5]; test potential -40mV): 15 fold
- KCNQ2/3 tail current deactivation ([5]; test potentials -30mV, -40mV after 1s prepulse from -100mV to +40mV): deactivation does not occur
- rate of KCNQ2/3 channel deactivation in comparison to control ([5]; test potentials -50mV to -110mV after 1s prepulse from -100mV to +40mV): significantly slowed
